One experiment concerns the target PD-1/PD-L1 (Homo sapiens, UniProt Q9NZQ7). Put plainly: PD-1/PD-L1 biochemical protein-protein interaction assay (ALPHA). Type of experiment: binding. As to conditions: 0.3 nM His tagged PD-L1, 2.5 nM biotinylated Fc-PD-1, 60 minutes at 25° C., read-out: IC50 PD-L1-PD-1 Alpha IC50-mono PD-L1-fcP-D1. The gist of the method:
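Bead proximity read-out: compound-driven loss of ALPHA signal between anti-His acceptor and streptavidin donor beads (20 μg/mL acceptor). Proteins: 0.3 nM His-PD-L1, 2.5 nM biotin-Fc-PD-1, final. 60 min, 25° C, Hepes pH 7.4 buffer. IC50 via four-parameter dose-response fit.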

The target in another experiment is T1, PD-1/PD-L1 interaction (Homo sapiens, UniProt Q9NZQ7).
T1 construct: expressed in transfected cells; host or cells: CHO cells (aAPC-PD-L1) co-cultured with Jurkat cells overexpressing PD-1 and an NFAT-luciferase reporter
T1 sequence (Q9NZQ7 19-290): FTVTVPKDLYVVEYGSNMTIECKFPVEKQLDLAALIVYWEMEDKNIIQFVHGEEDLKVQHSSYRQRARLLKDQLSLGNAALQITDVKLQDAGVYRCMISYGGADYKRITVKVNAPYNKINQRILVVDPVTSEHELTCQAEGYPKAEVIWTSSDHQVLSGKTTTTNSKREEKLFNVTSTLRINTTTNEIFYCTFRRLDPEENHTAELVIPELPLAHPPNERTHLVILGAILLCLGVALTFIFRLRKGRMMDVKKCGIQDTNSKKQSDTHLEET
Put plainly: PD-1/PD-L1 NFAT reporter co-culture assay. Type of experiment: cell-based. As to conditions: Jurkat PD-1 NFAT-luciferase cells co-cultured with aAPC-PD-L1 CHO cells, 6 hrs at 37° C.; read-out: EC50 NFAT Luciferase. The gist of the method:
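CHO aAPC-PD-L1 seeded overnight; PD-1/NFAT-luc Jurkat + cpd in RPMI 1640, 2% FBS added at once; 6 h, 37 °C; ONE-Glo luminescence; EC50, 4-parameter fit.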

A further experiment deals with T2, PD-L1 (Homo sapiens, UniProt Q9NZQ7).
T2 construct: determine if they can specifically dimerize the extracellular domains of PD-L1
T2 sequence (Q9NZQ7 19-238 limits assumed): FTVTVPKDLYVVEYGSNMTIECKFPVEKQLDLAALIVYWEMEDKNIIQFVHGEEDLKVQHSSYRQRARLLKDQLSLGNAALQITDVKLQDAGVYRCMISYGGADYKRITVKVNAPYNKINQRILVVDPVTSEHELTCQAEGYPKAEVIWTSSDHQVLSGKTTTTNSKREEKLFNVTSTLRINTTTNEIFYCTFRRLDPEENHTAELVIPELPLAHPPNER
T2 sequence (Q9NZQ7 19-238 limits assumed): as above
Put plainly: PD-L1/PD-L1 dimerization biochemical protein-protein interaction assay (ALPHA). As to conditions: compound-induced PD-L1 dimerization, head prints '1 nM' (0.5 nM His-tagged PD-L1 and 0.5 nM FLAG-tagged PD-L1), read-out: AC50 PDL1 Dimer Alpha 1 nM. It counts as binding. The method in brief: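 After 2 h at 25 °C with compound, His- and FLAG-tagged PD-L1 ECDs (each 0.5 nM final; 25 mM Hepes pH 7.4, 150 mM NaCl) were detected by sequential anti-His acceptor and anti-FLAG donor bead incubations. Dose-response curves fitted to four-parameter equation for AC50.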

Results on 26 molecules are retold here after US12590062B2, “PD-1/PD-L1 inhibitors” (Gilead Sciences, Inc., priority 2017, dated 2026).

Molecules are shown by their SMILES.

Chain of PD-1/PD-L1 (Q9NZQ7 19-238 limits assumed): as above

As for `Cc1c(COc2cc(OCc3cncc(C#N)c3)c(CNC[C@@H](O)CC(=O)O)cc2Cl)cccc1-c1cccc(OCc2cc(OCc3cncc(C#N)c3)c(CNC[C@@H](O)CC(=O)O)cc2Cl)c1C` [Example 390, (S)-4-((4-((3′-((4-((((S)-3-carboxy-2-hydroxypropyl)amino)methyl)-2-chloro-5-((5-cyanopyridin-3-yl)methoxy)benzyl)oxy)-2,2′-dimethyl-[1,1′-biphenyl]-3-yl)methoxy)-5-chloro-2-((5-cyanopyridin-3-yl)methoxy)benzyl)amino)-3-hydroxybutanoic acid], the IC50 on PD-1/PD-L1 turned out to be 0.324 nM. The EC50 at PD-1/PD-L1 interaction stood at 120 nM. Also, the AC50 at PD-L1 turned out to be 97.5 nM.

Regarding `COc1nc(-c2cccc(-c3cccc4c3CC[C@@H]4Oc3nc(OC)c(CN4CC5(CCC(=O)N5)C4)cc3Cl)c2Cl)ccc1CN1CC2(CCC(=O)N2)C1` [Example 733], the 50% inhibitory concentration (IC50) on PD-1/PD-L1 was 0.222 nM. Besides, the EC50 on PD-1/PD-L1 interaction was found to be 120 nM. Moreover, at PD-L1, the AC50 was determined as 129 nM.

With `CC(C)(NCc1cc(Cl)c(O[C@H]2CCc3c(-c4cccc(-c5ccc(OCCN6CC[C@@H](O)C6)cc5)c4Cl)cccc32)nc1OCc1cncc(S(C)(=O)=O)c1)C(=O)O` [Example 665], the IC50 on PD-1/PD-L1 was determined as 0.064 nM. Further, the EC50 at PD-1/PD-L1 interaction was 150 nM. For the same molecule, the AC50 at PD-L1 was 16.5 nM.

In the case of `C[C@@](CO)(NCc1cc(Br)c(O[C@H]2CCc3c(-c4cccc(-c5ccc(C6=NCCN6)cc5)c4Cl)cccc32)nc1OCc1cncc(C#N)c1)C(=O)O` [Example 737], the IC50 at PD-1/PD-L1 is 0.064 nM. Also, the EC50 on PD-1/PD-L1 interaction amounted to 80 nM. Besides, the AC50 at PD-L1 worked out at 8.23 nM.

On to `N#Cc1cncc(COc2nc(OCc3cccc(-c4cccc(-c5ccc(OCCNCCO)cc5)c4Cl)c3Cl)c(Cl)cc2CNC[C@@H](O)CC(=O)O)c1` [Example 561], for which the IC50 on PD-1/PD-L1 stood at 0.531 nM. Besides, the EC50 on PD-1/PD-L1 interaction came to 146 nM. The AC50 on PD-L1 came to 193 nM.

As for `COc1nc(-c2cccc(-c3cccc4c3CC[C@@H]4Oc3nc(OC)c(CN[C@@](C)(CO)C(=O)O)cc3Cl)c2Cl)ccc1CNC[C@@H]1CCC(=O)N1` [Example 727], at PD-1/PD-L1, the IC50 amounted to 0.064 nM. Further, at PD-1/PD-L1 interaction, the EC50 is 27 nM. Also, the AC50 at PD-L1 is 15.8 nM.

Regarding `Cc1c(COc2cc(OCc3cncc(C#N)c3)c(CNC[C@@H](O)CC(=O)O)cc2Cl)cccc1-c1cccc(-c2ncc(COCCNC[C@@H](O)CC(=O)O)s2)c1C` [Example 350, (S)-4-((4-((3′-(5-((2-(((S)-3-carboxy-2-hydroxypropyl)amino)ethoxy)methyl)thiazol-2-yl)-2,2′-dimethyl-[1,1′-biphenyl]-3-yl)methoxy)-5-chloro-2-((5-cyanopyridin-3-yl)methoxy)benzyl)amino)-3-hydroxybutanoic acid], on PD-1/PD-L1, the IC50 came to 0.105 nM. Also, the EC50 at PD-1/PD-L1 interaction came out at 527 nM. The AC50 on PD-L1 worked out at 252 nM.

Turning to `COc1nc(-c2cccc(-c3cccc4c3CC[C@@H]4Oc3nc(OCc4cncc(C#N)c4)c(CNC(C)(C)C(=O)O)cc3Cl)c2Br)ccc1C1=NCCN1` [Example 701], the IC50 on PD-1/PD-L1 worked out at 0.818 nM. Also, the EC50 on PD-1/PD-L1 interaction turned out to be 3050 nM. In addition, at PD-L1, the AC50 came out at 332 nM.

On to `COc1nc(-c2cccc(-c3cccc4c3CC[C@@H]4Oc3nc(OC)c(CN4CC[C@H](C(=O)O)C4)cc3Cl)c2Cl)ccc1CN1CC(C)(CO)C1` [Example 708], for which, at PD-1/PD-L1, the IC50 was 0.064 nM. At PD-1/PD-L1 interaction, the EC50 came out at 34 nM. Besides, at PD-L1, the AC50 amounted to 38.6 nM.

In the case of `Cc1c(COc2cc(OCc3cncc(C#N)c3)c(CNC[C@@H]3CCC(=O)N3)cc2Cl)cccc1-c1cccc(-c2ccc(CNC[C@@H]3CCC(=O)N3)cc2)c1C` [Example 497], the IC50 on PD-1/PD-L1 amounted to 1.43 nM. In addition, the EC50 at PD-1/PD-L1 interaction was 182 nM. Moreover, the AC50 at PD-L1 came out at 302 nM.

In the case of `Cc1c(COc2cc(OCc3cncc(C#N)c3)c(CN[C@@](C)(CO)C(=O)O)cc2Cl)cccc1-c1cccc(-c2ccc(CNCCn3ccnn3)cc2)c1C` [Example 580], the IC50 on PD-1/PD-L1 was 0.215 nM. The EC50 at PD-1/PD-L1 interaction was determined as 200 nM. Besides, the AC50 on PD-L1 is 231 nM.

As for `COc1nc(O[C@H]2CCc3c(-c4cccc(-c5ccc6c(c5)C[C@@H](N)C6)c4Cl)cccc32)c(Br)cc1CN[C@@](C)(CO)C(=O)O` [Example 784], the IC50 on PD-1/PD-L1 was found to be 0.064 nM. Also, the EC50 on PD-1/PD-L1 interaction was determined as 182 nM. The AC50 on PD-L1 came out at 28.9 nM.

As for `Cc1c(COc2cc(OCc3cncc(C#N)c3)c(CN[C@@](C)(CO)C(=O)O)cc2Cl)cccc1-c1cccc(-c2cccc([C@@H](C)N)c2)c1C` [Example 498], on PD-1/PD-L1, the IC50 was determined as 0.115 nM. Moreover, on PD-1/PD-L1 interaction, the EC50 came out at 111 nM. The AC50 at PD-L1 worked out at 84.7 nM.

In the case of `Cc1c(COc2cc(OCc3cncc(C#N)c3)c(CN[C@@](C)(CO)C(=O)O)cc2Cl)cccc1-c1cccc(-c2ccc(CNC3CNC(=O)C3)cc2)c1C` (stereo partly drawn) [Example 363, (2S)-2-((5-chloro-2-((5-cyanopyridin-3-yl)methoxy)-4-((2,2′-dimethyl-4″-(((5-oxopyrrolidin-3-yl)amino)methyl)-[1,1′:3′,1″-terphenyl]-3-yl)methoxy)benzyl)amino)-3-hydroxy-2-methylpropanoic acid], the IC50 on PD-1/PD-L1 was 0.081 nM. For the same molecule, on PD-1/PD-L1 interaction, the EC50 stood at 168 nM. The AC50 on PD-L1 came out at 171 nM.

For the molecule `Cc1c(COc2cc(OCc3cncc(C#N)c3)c(CN[C@@](C)(CO)C(=O)O)cc2Cl)cccc1-c1cccc(-c2ccc(OCCN3CCC4(CCCNC4=O)CC3)cc2)c1C` [Example 516], on PD-1/PD-L1, the IC50 was found to be 0.065 nM. Moreover, the EC50 at PD-1/PD-L1 interaction is 92 nM. The AC50 at PD-L1 is 104 nM.

In the case of `N#Cc1cc(C#N)cc(COc2nc(OCc3cccc(-c4cccc(-c5ccc(CN6CC7(CCC(=O)N7)C6)cc5)c4Cl)c3Cl)c(Cl)cc2CNC[C@@H](O)CC(=O)O)c1` [Example 567], at PD-1/PD-L1, the IC50 is 0.327 nM. Besides, on PD-1/PD-L1 interaction, the EC50 is 85 nM. In addition, the AC50 at PD-L1 was 68.7 nM.

Turning to `Cc1c(COc2cc(OCc3cncc(C#N)c3)c(CNC[C@@H](O)CC(=O)O)cc2Cl)cccc1-c1cccc(-c2ccc(CN(C)C)cc2)c1Br` [Example 484], on PD-1/PD-L1, the IC50 came to 0.205 nM. For the same molecule, the EC50 at PD-1/PD-L1 interaction was determined as 138 nM. The AC50 on PD-L1 worked out at 108 nM.

As to `COc1ccc(-c2cccc(-c3cccc(COc4cc(OCc5cncc(C#N)c5)c(CN[C@@](C)(CO)C(=O)O)cc4Cl)c3C)c2C)cc1CNCC1CCC(=O)N1` (stereo partly drawn) [Example 509], on PD-1/PD-L1, the IC50 was 0.097 nM. At PD-1/PD-L1 interaction, the EC50 came to 89 nM. For the same molecule, on PD-L1, the AC50 was found to be 129 nM.

Turning to `COc1nc(O[C@H]2CCc3c(-c4cccc(-c5ccc(C6=NCCN6)c(OC)n5)c4Cl)cccc32)c(Br)cc1CN1CC2(C1)CN(C(C)=O)C2` [Example 775], the IC50 at PD-1/PD-L1 amounted to 0.276 nM. The EC50 on PD-1/PD-L1 interaction stood at 84 nM. For the same molecule, the AC50 at PD-L1 came to 68 nM.

For `COc1nc(-c2cccc(-c3cccc4c3CC[C@@H]4Oc3ccc(CN[C@@](C)(CO)C(=O)O)c(OCc4cncc(C#N)c4)n3)c2C)ccc1C1=NCCN1` [Example 750], at PD-1/PD-L1, the half-inhibitory concentration (IC50) was 0.064 nM. Moreover, the EC50 at PD-1/PD-L1 interaction came to 222 nM. The AC50 on PD-L1 came to 72.1 nM.

For the molecule `Cc1c(COc2cc(OCc3cncc(C#N)c3)c(CNC[C@@H](O)CC(=O)O)cc2Cl)cccc1-c1cccc(-c2ccc3c(c2)CC(NCC(=O)O)C3)c1C` (stereo partly drawn) [Example 474], the concentration for half-maximal inhibition (IC50) at PD-1/PD-L1 came to 0.064 nM. Further, the EC50 on PD-1/PD-L1 interaction turned out to be 59 nM. At PD-L1, the AC50 turned out to be 137 nM.

Turning to `COc1nc(O[C@H]2CCc3c(-c4cccc(-c5ccc(CNC[C@@H]6CCC(=O)N6)cc5)c4Cl)cccc32)c(Cl)cc1CN1CC[C@H](O)C1` [Example 718], the IC50 on PD-1/PD-L1 is 0.242 nM. Further, the EC50 at PD-1/PD-L1 interaction came to 704 nM. Further, the AC50 at PD-L1 is 70.4 nM.

With `Cc1c(COc2cc(OCc3cncc(C#N)c3)c(CN[C@@](C)(CO)C(=O)O)cc2Cl)cccc1-c1cccc(-c2ccc(OCCN[C@@](C)(CO)C(=O)O)cc2)c1C` [Example 313, (S)-2-((4-((4″-(2-(((S)-2-carboxy-1-hydroxypropan-2-yl)amino)ethoxy)-2,2′-dimethyl-[1,1′:3′,1″-terphenyl]-3-yl)methoxy)-5-chloro-2-((5-cyanopyridin-3-yl)methoxy)benzyl)amino)-3-hydroxy-2-methylpropanoic acid], the IC50 on PD-1/PD-L1 turned out to be 0.051 nM. In addition, at PD-1/PD-L1 interaction, the half-maximal effective concentration (EC50) was 152 nM. The AC50 on PD-L1 stood at 91.3 nM.

For the molecule `C[C@@](CO)(NCc1cc(Br)c(OCc2cccc(-c3cccc(-c4ccc5c(c4)C[C@@H](N)C5)c3Cl)c2Cl)nc1OCc1cncc(S(C)(=O)=O)c1)C(=O)O` [Example 550], at PD-1/PD-L1, the IC50 worked out at 0.134 nM. Moreover, the EC50 on PD-1/PD-L1 interaction amounted to 163 nM. The AC50 on PD-L1 amounted to 47.7 nM.

With `COc1nc(-c2cccc(-c3cccc4c3CC[C@@H]4Oc3nc(OCc4cncc(C#N)c4)c(CN[C@@](C)(CO)C(=O)O)cc3Cl)c2C)ccc1C1=NCCN1` [Example 749], on PD-1/PD-L1, the IC50 turned out to be 0.064 nM. In addition, the EC50 on PD-1/PD-L1 interaction is 77 nM. For the same molecule, the AC50 on PD-L1 was 16.8 nM.

Regarding `C[C@@](CO)(NCc1cc(Cl)c(OCc2cccc(-c3cccc(-c4ccc(CNC[C@@H]5CCC(=O)N5)cc4)c3Cl)c2Cl)nc1OCc1cc(C#N)cc(C#N)c1)C(=O)O` [Example 577], the IC50 at PD-1/PD-L1 is 0.064 nM. In addition, the EC50 at PD-1/PD-L1 interaction is 16 nM. In addition, the AC50 on PD-L1 stood at 9.73 nM.
